Patent publication US20260327264A1, “PEPTIDE INHIBITORS OF INTERLEUKIN-23 RECEPTOR” (Zealand Pharma A/S, priority 2023, published 2026)
*1 amine or outer side, *2 acyl side, *3 side chain or, on linkers, in order; H or OH if unused. Where a SMILES comes first, the peptide text is derived from it. Bridges are numbered along the chain shown (N, C = ends). [ ]: non-standard residue; d: D form. 2Nal = N[C@@H](Cc1ccc2ccccc2c1)C(=O)O; AEF = NCCOc1ccc(C[C@H](N)C(=O)O)cc1; X1 = O=C(Cc1ccc(CN[*:1])cc1)[*:2]; 3Pal = N[C@@H](Cc1cccnc1)C(=O)O; αMeL = CC(C)C[C@](C)(N)C(=O)O; Dab = NCC[C@H](N)C(=O)O; Sar = CNCC(=O)O

Tests used:
[1] = Peptide stability in simulated intestinal fluid (SIF); type: in vitro ADME; settings: simulated intestinal fluid; for remaining at 1 h, 10 µM: pig, SIF, pH 6.8, pancreatin, 37° C.
Outline: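 Peptide at 10 μM final in USP-type SIF (10 g/L porcine pancreatin, phosphate buffer pH 6.8), shaken at 37 °C. Samples at 0, 1 and 4 h quenched in acetonitrile/0.1% formic acid and analysed by LC-HRMS. Percent remaining calculated from absolute peak areas relative to time zero.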

[2] = system: IL-23 mediated IFN-γ secretion (human whole blood); assay: Functional inhibition of IL-23 mediated IFN-γ secretion in human whole blood; type: cell-based; settings: Table 3-5, hIL-23 EC80 with hIL-2 and hIL-18
Text: An in vitro human whole blood assay was used to assess the ability of IL23-R inhibitor compounds to inhibit IL-23-mediated IFN-γ secretion. The assay quantifies the functional antagonism of the IL23R inhibitors may be used to rank inhibitor potencies based on concentration response curves (CRCs) generated in the presence of fixed IL-23, IL-2 and IL-18 concentrations. […] and maximal inhibitory response may be calculated from the curves.
Human blood was obtained from voluntary donors at Blodbanken Hvidovre Hospital, Denmark on the day of the experiment by collection in BD Sodium-Heparin Vacutainer tubes [Cat #367876, Avantor].
The buffer used consisted of RPMI-1640 [Cat #61870-010; Thermo Fisher Scientific] supplemented with 1% V/V Penicillin-Streptomycin (Pen-Strep) Solution [Cat #15140; Thermo Fisher Scientific] and 1 mM Sodium Pyruvate [Cat #11360-039, Thermo Fisher Scientific] and 25 mM HEPES buffer [Cat #15630-056, Thermo Fisher Scientific] and 0.05% V/V Casein [Cat #C4765, Sigma-Aldrich] (hereafter referred to as assay buffer). […] A stimulatory solution of hIL-23 [Cat #11349-IL; R&D systems] corresponding to 4× the EC80 of hIL-23 (1.6 ng/ml) together with 4× hIL-2 [Cat #BT-002; R&D systems] (40 ng/ml) and 4× hIL-18 [Cat #9124-IL; R&D systems] (80 ng/ml) were also prepared in Assay buffer. To initiate the assay, 25 μL of the prepared 4× diluted test compound was added to the wells of a 96 well plate [Cat #167425; Thermo Scientific] followed by addition of 50 μL human whole blood to each well. Following the preincubation of the blood and inhibitor for 15 min in a cell incubator (37° C., 5% CO2), 25 μL of the prepared 4× stimulatory solution was added to each well and incubated for 16-24 hours in a humidity chamber in a cell incubator (37° C., 5% CO2).
To terminate the assay, 100 μL PBS pH 7.4 [Cat #10010-015; Thermo Fisher Scientific] was added to each well and the plate was spun at 350×G for ten minutes to pellet the blood. The supernatant was removed and added to a 96 well V-bottom Polypropylene plate [Corning 3363] using an 8-channel manual pipette.
Samples were diluted an additional 30× in Diluent 57 buffer from the MSD U-PLEX human IFN-γ assay [Cat #K151TTK-2; Mesoscale Discovery].
The IFN-γ level in the supernatant from the individual wells was determined using the MSD U-PLEX human IFN-γ assay kit [Cat #K151TTK-2; Mesoscale Discovery] and read on a Meso QuickPlex SQ 120 plate reader (Mesoscale Discovery).
For data analysis, raw data counts from the Meso QuickPlex SQ 120 plate reader were converted to concentrations of IFN-γ by using the standard curved supplied with the kit. Compound potency (IC50) and maximal inhibition (% inhibition) was estimated by computer-aided curve fitting using a 4-parameter logistic (4PL) non-linear mode. […] Maximal inhibition was expressed as a percentage where 0% is the activity level induced by the reference agonist alone ([…] together with IL-2 and IL-18 as indicated above), and 100% is the baseline activity level of the unstimulated receptor in the absence of the reference agonist.
Typically compounds with a low IC50 are desired. Typically compounds capable of completely inhibiting the IL23-induced response are desired.

[3] = Peptide stability in simulated gastric fluid (SGF); type: in vitro ADME; settings: pig, pH 1.2, pepsin, 37° C.
Outline: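 Peptide (10 μM final) incubated at 37 °C in USP SGF, pH 1.2 with porcine pepsin 3.2 g/L; aliquots at 0, 1 and 4 h quenched in acidified acetonitrile.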

| Structure (SMILES) | remaining at 1 h, 10 µM [1] [%] | SIF stability (in words) [1] | IC50 [2] [nM] | remaining at 1 h, 10 µM [3] [%] | remaining at 4 h, 10 µM [3] [%] | maximal inhibition (%) [2] [%] |
| --- | --- | --- | --- | --- | --- | --- |
| CNC(=O)[C@H](Cc1cccnc1)NC(=O)[C@H](CCN)NC(=O)[C@@H]1CCC(=O)NCc2ccc(cc2)CC(=O)N[C@@H](C)C(=O)N[C@H]2CCC(=O)NCC[C@H](NC(=O)[C@H](CCC(N)=O)NC(=O)[C@H](Cc3c[nH]c4ccccc34)NC2=O)C(=O)N[C@@H](Cc2ccc(OCCN)cc2)C(=O)N[C@@H](Cc2ccc3ccccc3c2)C(=O)N[C@@](C)(CC(C)C)C(=O)N1 [Compound 20, [4-Aminomethyl-phenylacetyl](1c)*AE(2c)WQ[Dab](2c)[Y(2-aminoethoxy)][2-Nal][2-Me-Leu]E(1c)[Dab][3-(3-Pyridyl)-Ala]-[NHMe]] |  |  | 0.64 | 107 | 103 | 97 |
| CNC(=O)CC[C@@H]1NC(=O)[C@H](Cc2c[nH]c3ccccc23)NC(=O)[C@@H]2CCC(=O)NCC[C@H](NC1=O)C(=O)N[C@@H](Cc1ccc(OCCN)cc1)C(=O)N[C@@H](Cc1ccc3ccccc3c1)C(=O)N[C@@](C)(CC(C)C)C(=O)N[C@H](C(=O)N[C@@H](CCN)C(=O)N[C@@H](Cc1cccnc1)C(=O)NC)CCC(=O)NCc1ccc(cc1)CC(=O)N[C@@H](CO)C(=O)N2 [Compound 29, [4-Aminomethyl-phenylacetyl](1c)*SE(2c)W[Q(Me)][Dab](2c)[Y(2-aminoethoxy)][2-Nal][2-Me-Leu]E(1c)[Dab][3-(3-Pyridyl)-Ala]-[NHMe]] ([X1]SEWE(NHMe)[Dab][AEF][2Nal][αMeL]E[Dab][3Pal]-NHMe; lactam 3-6, N-10) | 91 |  | 0.54 | 94 | 90 | 96 |
| CNC(=O)[C@H](Cc1cccnc1)NC(=O)[C@H](CCN)NC(=O)[C@@H]1CCC(=O)NCc2ccc(cc2)CC(=O)N[C@@H](C)C(=O)N[C@H]2CCC(=O)NCC[C@H](NC(=O)[C@H](CCC(N)=O)NC(=O)[C@H](Cc3c[nH]c4ccccc34)NC2=O)C(=O)N[C@@H](Cc2c[nH]c3ncccc23)C(=O)N[C@@H](Cc2ccc3ccccc3c2)C(=O)NC(C)(C)C(=O)N1 [Compound 43, [4-Aminomethyl-phenylacetyl](1c)*AE(2c)WQ[Dab](2c)[7-AzaTrp][2-Nal][Aib]E(1c)[Dab][3-(3-Pyridyl)-Ala]-[NHMe]] | 96 |  | 3.9 | 105 |  | 102 |

Stronger by IC50 [2], values ahead:

| remaining at 1 h, 10 µM [1] [%] | SIF stability (in words) [1] | IC50 [2] [nM] | remaining at 1 h, 10 µM [3] [%] | remaining at 4 h, 10 µM [3] [%] | Structure (SMILES) | maximal inhibition (%) [2] [%] |
| --- | --- | --- | --- | --- | --- | --- |
| 96 | SIF stable | 0.33 | 91 | 87 | CNC(=O)[C@H](Cc1cccnc1)NC(=O)[C@H](CCN)NC(=O)[C@@H]1CCC(=O)NCc2ccc(cc2)CC(=O)N[C@@H](CO)C(=O)N[C@H]2CCC(=O)NCC[C@H](NC(=O)[C@H](CCC(N)=O)NC(=O)[C@H](Cc3c[nH]c4ccccc34)NC2=O)C(=O)N[C@@H](Cc2ccc(OCCN)cc2)C(=O)N[C@@H](Cc2ccc3ccccc3c2)C(=O)N[C@@](C)(CC(C)C)C(=O)N1 [Compound 8, [4-Aminomethyl-phenylacetyl](1c)*SE(2c)WQ[Dab](2c)[Y(2-aminoethoxy)][2-Nal][2-Me-Leu]E(1c)[Dab][3-(3-Pyridyl)-Ala]-[NHMe]] | 96 |
| 102 | SIF stable | 0.21 |  | 95 | CC(C)C[C@]1(C)NC(=O)[C@H](Cc2ccc3ccccc3c2)NC(=O)[C@H](Cc2ccc(OCCN)cc2)NC(=O)[C@@H]2CCNC(=O)CC[C@H](NC(=O)[C@H](CO)NC(=O)Cc3ccc(cc3)CNC(=O)CC[C@@H](C(=O)N[C@@H](CCN)C(=O)N[C@@H](Cc3cccnc3)C(=O)N(C)CC(N)=O)NC1=O)C(=O)N[C@@H](Cc1c[nH]c3ccccc13)C(=O)N[C@@H](CCC(N)=O)C(=O)N2 [Compound 9, [4-Aminomethyl-phenylacetyl](1c)*SE(2c)WQ[Dab](2c)[Y(2-aminoethoxy)][2-Nal][2-Me-Leu]E(1c)[Dab][3-(3-Pyridyl)-Ala][Sar]-[NH2]] ([X1]SEWQ[Dab][AEF][2Nal][αMeL]E[Dab][3Pal][Sar]-NH2; lactam 3-6, N-10) | 97 |
